{"source": "patent US20100196264A1", "about": "“USE OF SOMATOSTATIN ANALOGS IN MYOCARDIAL PERFUSION IMAGING” (THE BRIGHAM AND WOMEN'S HOSPITAL, INC., priority 2007, published 2010)", "key": {"[1]": {"tested_on": "extracardiac uptake of radiotracer", "test": "Myocardial perfusion imaging with periprocedural somatostatin analog (examples)", "assay_type": "in vivo"}, "SST1": {"target": "SST1 (Homo sapiens, UniProt P30872)", "sequence (P30872 whole entry)": "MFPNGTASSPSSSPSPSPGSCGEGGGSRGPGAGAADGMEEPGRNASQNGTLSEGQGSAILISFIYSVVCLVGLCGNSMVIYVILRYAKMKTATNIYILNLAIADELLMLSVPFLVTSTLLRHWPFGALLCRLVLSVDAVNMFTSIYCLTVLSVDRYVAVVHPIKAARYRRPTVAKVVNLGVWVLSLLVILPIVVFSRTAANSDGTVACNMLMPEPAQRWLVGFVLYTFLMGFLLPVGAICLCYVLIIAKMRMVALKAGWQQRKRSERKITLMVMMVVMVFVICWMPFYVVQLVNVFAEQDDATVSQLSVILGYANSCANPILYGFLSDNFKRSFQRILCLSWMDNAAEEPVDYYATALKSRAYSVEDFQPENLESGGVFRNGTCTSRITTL", "conditions": "cited from earlier work"}, "SST2": {"target": "SST2 (Homo sapiens, UniProt P30874)", "sequence (P30874 whole entry)": "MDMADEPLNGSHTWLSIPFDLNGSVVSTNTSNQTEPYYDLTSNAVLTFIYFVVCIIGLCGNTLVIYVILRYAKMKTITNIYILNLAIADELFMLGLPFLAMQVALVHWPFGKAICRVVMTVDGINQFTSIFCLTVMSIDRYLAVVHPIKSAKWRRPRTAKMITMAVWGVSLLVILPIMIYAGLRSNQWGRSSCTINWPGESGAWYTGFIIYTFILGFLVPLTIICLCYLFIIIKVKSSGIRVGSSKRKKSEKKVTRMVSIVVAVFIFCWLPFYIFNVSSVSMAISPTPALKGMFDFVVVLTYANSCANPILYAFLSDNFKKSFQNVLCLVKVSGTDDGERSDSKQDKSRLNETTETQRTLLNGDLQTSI", "conditions": "cited from earlier work"}, "SST3": {"target": "SST3 (Homo sapiens, UniProt P32745)", "sequence (P32745 whole entry)": "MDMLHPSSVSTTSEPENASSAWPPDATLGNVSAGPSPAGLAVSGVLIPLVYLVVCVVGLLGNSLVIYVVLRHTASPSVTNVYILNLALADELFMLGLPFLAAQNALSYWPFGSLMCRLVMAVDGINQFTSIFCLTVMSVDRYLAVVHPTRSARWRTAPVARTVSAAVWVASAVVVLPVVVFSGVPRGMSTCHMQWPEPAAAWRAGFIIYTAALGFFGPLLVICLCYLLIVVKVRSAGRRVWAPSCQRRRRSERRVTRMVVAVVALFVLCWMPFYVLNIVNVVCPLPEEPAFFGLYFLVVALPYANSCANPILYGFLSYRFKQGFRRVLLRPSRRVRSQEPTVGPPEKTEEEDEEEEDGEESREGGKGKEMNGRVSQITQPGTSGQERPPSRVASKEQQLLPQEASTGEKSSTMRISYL", "conditions": "cited from earlier work"}, "SST4": {"target": "SST4 (Homo sapiens, UniProt P31391)", "sequence (P31391 whole entry)": "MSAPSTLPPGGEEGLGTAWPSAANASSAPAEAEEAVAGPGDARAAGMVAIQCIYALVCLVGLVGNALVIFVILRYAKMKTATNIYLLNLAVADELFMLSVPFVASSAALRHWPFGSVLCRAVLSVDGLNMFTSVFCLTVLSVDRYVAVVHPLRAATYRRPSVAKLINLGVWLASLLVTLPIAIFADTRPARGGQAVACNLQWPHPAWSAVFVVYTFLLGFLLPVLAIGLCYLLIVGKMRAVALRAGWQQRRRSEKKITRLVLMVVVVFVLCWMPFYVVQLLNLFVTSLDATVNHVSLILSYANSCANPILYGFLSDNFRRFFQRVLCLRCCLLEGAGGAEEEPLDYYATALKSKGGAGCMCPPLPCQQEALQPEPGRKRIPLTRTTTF", "conditions": "cited from earlier work"}, "portal vein flow": {"tested_on": "portal vein flow", "conditions": "infusion at various infusion concentrations; adapted from Digestion 1999; 60:132-140; cited from earlier work"}, "[2]": {"tested_on": "gastric mucosal blood flow", "conditions": "fifteen minutes after a single bolus injection; laser Doppler flowmeter; adapted from Surg Endosc (2003) 17: 1570-1572; cited from earlier work"}, "[3]": {"conditions": "typical administration at rest; Cardiolite Product Insert; cited from earlier work"}, "[4]": {"tested_on": "abdominal radiotracer uptake", "conditions": "literature, cited from earlier work; for obscuring effect of abdominal radiotracer uptake: myocardial perfusion imaging"}}}
{"molecule": "C[C@@H](O)[C@@H]1NC(=O)[C@H](CCCCN)NC(=O)[C@@H](Cc2c[nH]c3ccccc23)NC(=O)[C@H](Cc2ccccc2)NC(=O)[C@@H](NC(=O)[C@H](N)Cc2ccccc2)CSSC[C@@H](C(=O)N[C@H](CO)[C@@H](C)O)NC1=O", "note": "[Octreotide, octreotide]", "values": [{"measurement": "extracardiac uptake of radiotracer", "setting": "[1]; 100 mcg bolus fifteen minutes prior to radiotracer, then 100 mcg per hour constant infusion, adenosine stress", "value": "reduced"}, {"measurement": "extracardiac uptake of radiotracer", "setting": "[1]; 100 mcg bolus ten minutes prior to radiotracer, second 100 mcg bolus ten minutes prior to adenosine stress", "value": "reduced"}, {"measurement": "affinity for SST1 (in words)", "setting": "SST1", "value": "virtually no affinity"}, {"measurement": "affinity for SST2 (in words)", "setting": "SST2", "value": "displaying affinity"}, {"measurement": "affinity for SST3 (in words)", "setting": "SST3", "value": "displaying affinity"}, {"measurement": "affinity for SST4 (in words)", "setting": "SST4", "value": "virtually no affinity"}, {"measurement": "portal vein flow", "setting": "portal vein flow", "value": "decrease"}, {"measurement": "reduction in gastric mucosal blood flow", "setting": "[2]", "value": 50, "unit": "%"}]}
{"molecule": "[C-]#[N+]CC(C)(C)OC.[C-]#[N+]CC(C)(C)OC.[C-]#[N+]CC(C)(C)OC.[C-]#[N+]CC(C)(C)OC.[C-]#[N+]CC(C)(C)OC.[C-]#[N+]CC(C)(C)OC.[Tc]", "note": "[Tc-99m-setsamibi]", "values": [{"measurement": "total dose absorbed into the liver", "setting": "[3]", "value": 19, "unit": "%"}, {"measurement": "total dose taken into the heart", "setting": "[3]", "value": 1.2, "unit": "%"}]}
{"molecule": "Cn1c(=O)c2[nH]cnc2n(C)c1=O", "note": "[aminophyllin]", "values": [{"measurement": "artifacts in images taken after the dipyridamole injection", "setting": "[4]; used to counter dipyridamole stress", "value": "does not prevent artifacts"}]}
{"molecule": "CC(C)[C@@H]1NC(=O)[C@H](CCCCN)NC(=O)[C@@H](Cc2c[nH]c3ccccc23)NC(=O)[C@H](Cc2ccc(O)cc2)NC(=O)[C@@H](NC(=O)[C@H](N)Cc2ccc3ccccc3c2)CSSC[C@@H](C(=O)N[C@H](C(N)=O)[C@@H](C)O)NC1=O", "note": "[lanreotide]", "values": [{"measurement": "extracardiac uptake of radiotracer", "setting": "[1]; 200 mcg bolus thirty minutes prior to radiotracer, then 200 mcg per hour infusion for rest injections, treadmill exercise stress", "value": "reduced"}, {"measurement": "affinity for SST1 (in words)", "setting": "SST1", "value": "virtually no affinity"}, {"measurement": "affinity for SST2 (in words)", "setting": "SST2", "value": "displaying affinity"}, {"measurement": "affinity for SST3 (in words)", "setting": "SST3", "value": "displaying affinity"}, {"measurement": "affinity for SST4 (in words)", "setting": "SST4", "value": "virtually no affinity"}]}
{"molecule": "CCN(CC)CCNC(=O)c1cc(Cl)c(N)cc1OC", "note": "[metoclopromide]", "values": [{"measurement": "obscuring effect of abdominal radiotracer uptake", "setting": "[4]", "value": "did not significantly decrease"}]}
{"molecule": "cholecystokinin (peptide, UniProt P06307 21-115, looked up, Cholecystokinin, gastric stimulant) Cholecystokinin: QPVPPADPAGSGLQRAEEAPRRQLRVSQRTDGESRAHLGALLARYIQQARKAPSGRMSIVKNLQNLDPSHRISDRDYMGWMDFGRRSAEEYEYPS", "values": [{"measurement": "obscuring effect of abdominal radiotracer uptake", "setting": "[4]", "value": "without success"}]}
